Assay results from publication PMC9181915, “Synthesis and Anti-Neuroinflammatory Activity of 1,7-diphenyl-1,4-heptadien-3-ones in LPS-Stimulated BV2 Microglia Via Inhibiting NF-κB/MAPK Signaling Pathways” (Molecules, 2022).

Assays:
JNK = assay: LPS-induced JNK phosphorylation in BV2 cells (Western blot); assay type: cell-based; conditions: 3 μM, 1 h pretreatment, LPS 1 μg/mL 24 h
Procedure: (§1) CU-19, CU-21 and LPS were configured with DMEM medium (2% FBS). The cells were collected and washed three times with ice-cold PBS. The lysate (containing 1% protease inhibitor and phosphatase inhibitor) was added to the collected cells for suspension, and the cells were lysed by ultrasonic crusher. Then the cell lysates were centrifuged (14,000 rpm, 10 min, 4 °C) […] and collect the supernatant. Aliquots of the lysates were separated on 10% sodium dodecyl sulphate (SDS)-polyacrylamide gel electrophoresis (PAGE) and then electro blotted onto a polyvinylidene difluoride (PVDF) membrane. The blots were blocked with 5% (w/v) nonfat dry milk for 2 h at room temperature, followed by incubation with specific primary antibodies at 4 °C overnight. Blots were washed with PBST and incubated with secondary antibody for 2 h, after which an ECL reagent was used for chemiluminescent detection.

[1] = MTT cell viability assay in BV2 microglia cells; assay type: cell-based; conditions: mouse, mean ± SD, n = 3
Procedure: (§2) The BV2 microglial cells were purchased from the China Center for Type Culture Collection, CCTCC (Wuhan, Hubei). BV2 microglia cells were incubated in DMEM media supplemented with 10% (v/v) FBS, 100 U/mL penicillin G and […] streptomycin at 37 °C with 5% CO2.
Cell viability assays were evaluated using a 3-(4,5-dimethylthiazol-2-yl)-2,5-diphenyltetrazolium bromide (MTT) assay. BV2 microglia cells were seeded in 96-well plates at a density of 1.6 × 10^5 cells/well in complete medium and incubated for 24 h. Then, the culture medium was sucked and discarded, and sterile PBS was added for washing, and then PBS was removed. Then the cells were treated with different concentrations of target compounds for 24 h. An amount equal to 100 μL of MTT was added to each well and the cells were further incubated for 2–4 h. An amount equal to 150 μL of DMSO was added into a 96-well plate and vibrated with micro-oscillator for 10 min. The optical density (A) was measured at […] on a microplate reader. The inhibitory rate of the various concentrations of agents in BV2 cells was calculated using the following formula:Cell viability (%) = [A492 (sample) − A492 (blank)]/[A492 (control) − A492 (blank)] × 100%

p38 = assay: LPS-induced p38 phosphorylation in BV2 cells (Western blot); assay type: cell-based; conditions: 3 μM, 1 h pretreatment, LPS 1 μg/mL 24 h
Procedure: as §1

[2] = In vivo pharmacokinetic study in rats; parameters: species or system Sprague–Dawley male rats; conditions: for AUC(0-inf) / AUC(0-t) / Cmax / half-life / MRT last / MRT inf: male, Sprague-Dawley, rat plasma, mean ± SD, n = 4; for AUC(0-inf) / AUC(0-t) / Cmax / half-life / MRT last / MRT inf / Increase of T1/2 in comparison with that of CU: single intravenous dose 20 mg/kg; for MRT last: read-out: MRT (0-t) (converted); for MRT inf: read-out: MRT (0-∞) (converted); for Metabolites detected in plasma by HPLC: rat plasma after intravenous 20 mg/kg, chromatograms at 5, 10, 20 min (Figures S1–S9); for Increase of T1/2 in comparison with that of CU: rat
Procedure: After a single intravenous dose of 20 mg/kg, 0.5 mL of blood was obtained from the fossa orbitalis veniplex of rats at 5, 10, 20, 30, 45, 60, 120, 180 and 240 min. HPLC was used to determine the concentration of each compound in plasma and the DAS software was used for the noncompartmental pharmacokinetic analysis of the plasma concentration–time data.
Sprague–Dawley male rats, 200–240 g, were housed in cages in an airconditioned room with light dark cycle of 12 h before the experiment started. The animals were fasted for 12 h with water ad libitum. […] The administration volume was 6 mL per kg of body weight. The compounds were dissolved in PEG400 (10% of the administration volume) and water (90% of the administration volume) and sonicated for 30 min. After tail vein injection administration at a dose of 20 mg/kg, 0.5 mL blood was obtained from fossa orbitalis veniplex of rats at 5, 10, 20, 30, 45, 60, 120, 180 and 240 min. Whole blood samples were collected in heparinized tubes and the plasma was immediately centrifuged (10,000 rpm, 10 min, 4 °C) and then stored at −20 °C until analysis. The calibration standards and the plasma samples were extracted by protein precipitation using methanol.

[3] = tested on: LPS-induced NO release in BV2 cells; assay: Inhibition of LPS-induced NO release in BV2 cells; assay type: cell-based; conditions: Mus musculus, BV-2; for inhibition at 3 µM: pretreated 1 h, then LPS 1 μg/mL for 24 h, BV2 cells; for IC50: BV2 cells, 0.3, 1.0, 3.0 μM, LPS 1 μg/mL 24 h, mean ± SD, n = 3, read-out: IC50 to inhibit LPS-induced NO release
Procedure: as §2
Nitrite, a stable product of nitric oxide, was used to assess NO production. To study the effects of the compounds on NO production, BV2 microglia cells in the logarithmic phase were plated at 1 × 10^5 cells/well in a 24-well microplate and incubated in DMEM medium (10% FBS) overnight. The cells were pretreated with various concentrations of the test compounds for 1 h and further co-cultured with 1 μg/mL LPS and 5% CO2 for 24 h in a 37 °C incubator; then, the supernatant was taken and stored at −20 °C for NO detection. The target compound and LPS were configured with DMEM medium (2% FBS). The determination of NO was carried out according to the instructions. Unpretreated and unstimulated BV2 microglia cells were conducted as the blank control group. The absorbance value was determined at 540 nm, and the corresponding NO content was calculated by using the standard curve. The NO inhibitory rate of the various concentrations of agents in BV2 cells was calculated as per the following formula:Inhibition rate (%) = (LPS(NO concentration) − sample(NO concentration))/(LPS(NO concentration) − negative control(NO concentration)) × 100%.

ERK = assay: LPS-induced ERK phosphorylation in BV2 cells (Western blot); assay type: cell-based; conditions: 3 μM, 1 h pretreatment, LPS 1 μg/mL 24 h
Procedure: as §1

NF-κB = assay: LPS-induced NF-κB nuclear translocation in BV2 cells (immunofluorescence); assay type: cell-based; conditions: 3 μM with LPS, 24 h
Procedure: CU-19, CU-21 and LPS were configured with DMEM medium (2% FBS). After 24 h of treatment, cells were fixed with 4% paraformaldehyde for 18 min and washed three times with PBS (5 min per wash). The fixed cells were then permeabilized in […] for 15 min and washed three times with PBS (5 min per wash). Nonspecific binding sites were blocked with 5% goat serum for 30 min. These cells were then incubated with anti-NF-κB antibody at a dilution of 1:400 overnight at 4 °C. After washing with PBS three times, cells were incubated with fluorescent-conjugated secondary antibody (1:150) for 1 h, and counterstained with DAPI (1:50) at room temperature for 15 min in the dark. Cells were then washed and imaged via confocal microscopy.

iNOS = assay: LPS-induced iNOS expression in BV2 cells (Western blot); assay type: cell-based; conditions: 3 μM, 1 h pretreatment, LPS 1 μg/mL 24 h
Procedure: as §1

IL-6 = assay: LPS-induced IL-6 release in BV2 cells (ELISA); assay type: cell-based, mouse; conditions: 3 µM, 1 h pretreatment, LPS 1 μg/mL 24 h, vs. LPS alone
Procedure: (§3) BV2 microglia cells were seeded at 1 × 10^5 cells/well in a 24-well microplate and incubated overnight. […] CU-19, CU-21 and LPS were configured with DMEM medium (2% FBS). According to the protocol of the manufacturer, supernatant was harvested at the 24th hour for the assay of IL-6, TNF-α and PGE-2 with ELISA kits (Absin Shanghai, China). Briefly, 100 μL of biotinylated antibody reagent and the culture supernatant were added to anti-mouse IL-6, TNF-α and PGE-2-precoated 96-well plates, and the plates were incubated for 2.5 h at room temperature. The plate was washed with a washing buffer and subsequently incubated with 100 μL of the streptavidin–HRP solution for 20 min at room temperature. The plate was washed and incubated with 100 μL of TMB substrate solution for 20 min at room temperature in the dark. The reaction was stopped by adding 50 μL of stop solution, and then the absorbance was measured at 450 nm by a plate reader. The average value was substituted into the standard curve to obtain the […] concentration.

PGE-2 = assay: LPS-induced PGE-2 release in BV2 cells (ELISA); assay type: cell-based, mouse; conditions: 3 µM, 1 h pretreatment, LPS 1 μg/mL 24 h, vs. LPS alone
Procedure: as §3

TNF-α = assay: LPS-induced TNF-α release in BV2 cells (ELISA); assay type: cell-based, mouse; conditions: 3 µM, 1 h pretreatment, LPS 1 μg/mL 24 h, vs. LPS alone
Procedure: as §3

COX-2 = assay: LPS-induced COX-2 expression in BV2 cells (Western blot); assay type: cell-based; conditions: 3 μM, 1 h pretreatment, LPS 1 μg/mL 24 h
Procedure: as §1

Compound	JNK phosphorylation compared to the LPS group (JNK)	viability at 24 h, 1 µM [1] [%]	viability at 24 h, 3 µM [1] [%]	viability at 24 h, 10 µM [1] [%]	p38 phosphorylation compared to the LPS group (p38)	AUC(0-inf) [2] [ng·h/mL]	AUC(0-t) [2] [ng·h/mL]	Cmax [2] [ng/mL]	half-life [2] [h]	MRT last [2] [h]	MRT inf [2] [h]	inhibition at 3 µM [3] [%]	IC50 [3] [nM]	ERK phosphorylation compared to the LPS group (ERK)	Inhibition of LPS-induced NF-κB nuclear translocation (NF-κB)	Inhibition of LPS-induced iNOS expression (iNOS)	Inhibition of LPS-induced IL-6 release (IL-6)	Metabolites detected in plasma by HPLC [2]	Increase of T1/2 in comparison with that of CU [2] [fold]	Inhibition of LPS-induced PGE-2 release (PGE-2)	also measured
COc1cc(/C=C/C(=O)CC(=O)/C=C/c2ccc(O)c(OC)c2)ccc1O [CU, curcumin, reference compound]	inhibited	97.57 ± 0.05	95.26 ± 0.05	28.15 ± 0.19	inhibited	678	652	2450 ± 132	0.412 ± 0.282	0.235	0.342	37.4	> 3000	inhibited	–	–	–	–	–	–	–
COc1ccc(/C=C/C(=O)/C=C/CCc2ccccc2)cc1OC [CU-19, (1E,4E)-1-(3,4-dimethoxyphenyl)-7-phenyl-1,4-heptadien-3-one]	significantly decreased	96.94 ± 0.03	96.33 ± 0.02	67.91 ± 0.37	significantly decreased	2220	1770	3330 ± 393	2.25 ± 0.104	1.02	2.12	50.3	1600 ± 310	significantly decreased	able to inhibit NF-κB nuclear translocation	significantly inhibited	significantly inhibited	no obvious metabolites	4.5	significantly inhibited	Inhibition of LPS-induced TNF-α release (TNF-α): significantly inhibited; Inhibition of LPS-induced COX-2 expression (COX-2): significantly inhibited
COc1ccc(CC/C=C/C(=O)/C=C/c2ccccc2)cc1 [CU-21, (1E,4E)-7-(4-methoxyphenyl)-1-phenyl-1,4-heptadien-3-one]	significantly decreased	96.94 ± 0.01	94.55 ± 0.09	77.89 ± 0.5	significantly decreased	3530	2830	6850 ± 634	2.72 ± 0.613	0.757	2.32	66.1	1740 ± 660	significantly decreased	able to inhibit NF-κB nuclear translocation	significantly inhibited	significantly inhibited	no obvious metabolites	5.5	significantly inhibited	Inhibition of LPS-induced TNF-α release (TNF-α): significantly inhibited; Inhibition of LPS-induced COX-2 expression (COX-2): significantly inhibited; melting point: 58 to 60 °C
O=C(/C=C/CCc1ccc(Cl)cc1)/C=C/c1ccccc1 [CU-28, (1E,4E)-7-(4-chlorophenyl)-1-phenyl-1,4-heptadien-3-one]	–	95.71 ± 0.07	94.75 ± 0.05	81.65 ± 0.22	–	–	–	–	–	–	–	33.6	–	–	–	–	–	–	–	–	melting point: 48 to 50 °C
